Results: patent US8759366B2, “Aminopyrimidines as SYK inhibitors” (Merck Sharp & Dohme Corp., priority 2009, dated 2014)
Where a name gives a salt, the structure may show the parent alone.

Each molecule was assayed against rhSYK (Homo sapiens (Human), UniProt P43405). Conditions: read-out: rhSYK activity.

| Structure (SMILES) | IC50 [nM] |
| --- | --- |
| Cc1cc(Nc2ncc(F)cn2)cc(-c2cncs2)c1 [Intermediate 50, 5-Fluoro-N-[3-methyl-5-(1,3-thiazol-5-yl)phenyl]pyrimidin-2-amine] | 100 to 1000 |
| OC1(c2ncc(-c3cc(Nc4nccc(C(F)(F)F)n4)ccc3F)s2)CCC1 [Example 1, 1-[5-(2-fluoro-5-{[4-(trifluoromethyl)pyrimidin-2-yl]amino}phenyl)-1,3-thiazol-2-yl]cyclobutanol] | 100 to 1000 |
| OC1(c2ncc(-c3cc(Cl)cc(Nc4nccc(C(F)(F)F)n4)c3)s2)CCC1 [Example 3, 1-[5-(3-chloro-5-{[4-(trifluoromethyl)pyrimidin-2-yl]amino}phenyl)-1,3-thiazol-2-yl]cyclobutanol] | 100 to 1000 |
| Cc1cc(Nc2ncc(Cl)cn2)cc(-c2cncs2)c1 [Intermediate 48, 5-Chloro-N-[3-methyl-5-(1,3-thiazol-5-yl)phenyl]pyrimidin-2-amine] | 100 to 1000 |
| OC1(c2ncc(-c3cccc(Nc4nccc(C(F)(F)F)n4)c3)s2)CC2CCC1N2 (centres unmarked) [Example 4B-10] | 100 to 1000 |
| O=[N+]([O-])c1cc(Nc2nccc(C(F)(F)F)n2)cc(-c2cnc(C3(O)CCC3)s2)c1 [Example 18, 1-[5-(3-nitro-5-{[4-(trifluoromethyl)pyrimidin-2-yl]amino}phenyl)-1,3-thiazol-2-yl]cyclobutanol] | 100 to 1000 |
| CCOC(=O)C1CCC(O)(c2ncc(-c3cc(C)cc(Nc4nccc(C)n4)c3)s2)CC1c1ccc(F)cc1 (centres unmarked) [Example 4C-28] | 100 to 1000 |
| FC(F)(F)c1cc(Br)cc(Nc2nccc(C(F)(F)F)n2)c1 [N-[3-bromo-5-(trifluoromethyl)phenyl]-4-(trifluoromethyl)pyrimidin-2-amine] | 1000 to 10000 |
| FC(F)(F)c1ccnc(Nc2cccc(-c3cncs3)c2)n1 [Intermediate 7, N-[3-(1,3-thiazol-5-yl)phenyl]-4-(trifluoromethyl)pyrimidin-2-amine] | 100 to 1000 |
| COC(=O)C1CC(O)(c2ncc(-c3cc(C)cc(Nc4nccc(C(F)(F)F)n4)c3)s2)CCN1C(=O)OC(C)(C)C (centres unmarked) [4D-14] | 100 to 1000 |
| CC1(C)C(O)C(C)(C)C1(O)c1ncc(-c2cccc(Nc3nccc(C(F)(F)F)n3)c2)s1 (centres unmarked) [Example 6-10] | 100 to 1000 |
| Cc1cc(Nc2nccc(C(=O)O)n2)cc(-c2cnc(C(C)(O)C(F)(F)F)s2)c1 (centres unmarked) [Example 68, 2-({3-methyl-5-[2-(1,1,1-trifluoro-2-hydroxypropan-2-yl)-1,3-thiazol-5-yl]phenyl}amino)-pyrimidine-4-carboxylic acid] | 1000 to 10000 |
| Cc1cc(Nc2nccc(C(F)(F)F)n2)cc(-c2cnc(C3(O)CCNCC3)s2)c1 [Example 46, 4-[5-(3-methyl-5-{[4-(trifluoromethyl)pyrimidin-2-yl]amino}phenyl)-1,3-thiazol-2-yl]piperidin-4-ol] | < 100 |
| Cc1cc(Nc2nccc(C)n2)cc(-c2cnc(C3(O)CCNC(=O)CC3)s2)c1 (centres unmarked) [4D-7] | < 100 |
| Cc1cc(Nc2nccc(C)n2)cc(-c2cnc(C3(O)C4CC5CC3CC(O)(C5)C4)s2)c1 (centres unmarked) [Example 4B-29] | < 100 |
| Cc1cc(Nc2nccc(C(F)(F)F)n2)cc(-c2cnc(C3(O)CCCC(O)C3(C)C)s2)c1 (centres unmarked) [Example 8B-3] | < 100 |
| CCOC(=O)C1CCC(O)(c2ncc(-c3cc(C)cc(Nc4nccc(C)n4)c3)s2)CC1c1ccccc1C (centres unmarked) [Example 4C-27] | 100 to 1000 |
| Cc1cc(Nc2nccc(C(F)(F)F)n2)cc(-c2cnc(C3(O)C4CC5CC3CC(O)(C5)C4)s2)c1 (centres unmarked) [Example 4B-42] | < 100 |
| Cc1cc(Nc2nccc(C)n2)cc(-c2cnc(C3(O)CCC(C(=O)O)[C@@H]4CCCC[C@H]43)s2)c1 (some centres unmarked) [Example 4B-21] | < 100 |
| Cc1cc(Nc2nccc(C(F)(F)F)n2)cc(-c2cnc(C3(O)CCC4(CCC(=O)N4)CC3)s2)c1 (centres unmarked) [Example 4B-24] | < 100 |
| CC(C)N1CCC(O)(c2ncc(-c3cccc(Nc4nccc(C(F)(F)F)n4)c3)s2)CC1 [4D-5] | 100 to 1000 |

The next lines start with the values.

| IC50 [nM] | Structure (SMILES) |
| --- | --- |
| < 100 | Cc1cc(Nc2nccc(C(C)C)n2)cc(-c2cnc(C3(O)CCC3)s2)c1 [Example 56, 1-[5-(3-methyl-5-{[4-(propan-2-yl)pyrimidin-2-yl]amino}phenyl)-1,3-thiazol-2-yl]cyclobutanol HCl salt] |
| < 100 | CCOC(=O)C1CCC(O)(c2ncc(-c3cc(C)cc(Nc4nccc(C(F)(F)F)n4)c3)s2)CC1 (mixture of isomers) [Example 32, ethyl 4-hydroxy-4-[5-(3-methyl-5-{[4-(trifluoromethyl)pyrimidin-2-yl]amino}phenyl)-1,3-thiazol-2-yl]cyclohexanecarboxylate] |
| < 100 | Cc1cc(Nc2nccc(C(F)(F)F)n2)cc(-c2cnc(C(C)(C)O)s2)c1 [Example 4, 2-[5-(3-methyl-5-{[4-(trifluoromethyl)pyrimidin-2-yl]amino}phenyl)-1,3-thiazol-2-yl]propan-2-ol] |
| < 100 | Cc1cc(Nc2nccc(C(F)(F)F)n2)cc(-c2cnc(C3(C#N)CCC4(CC3)OCCO4)s2)c1 [8-[5-(3-methyl-5-{[4-(trifluoromethyl)pyrimidin-2-yl]amino}phenyl)-1,3-thiazol-2-yl]-1,4-dioxaspiro[4.5]decane-8-carbonitrile] |
| < 100 | Cc1cc(Nc2ncc(F)c(C)n2)cc(-c2cncs2)c1 [Intermediate 49, 5-Fluoro-4-methyl-N-[3-methyl-5-(1,3-thiazol-5-yl)phenyl]pyrimidin-2-amine] |
| < 100 | CCOC(=O)C1CCC(O)(c2ncc(-c3cc(C)cc(Nc4nccc(C(F)(F)F)n4)c3)s2)C(C)C1C (centres unmarked) [Example 4B-57] |
| < 100 | Cc1cc(Nc2nccc(C(F)(F)F)n2)cc(-c2cnc(C3(O)CCN(C4CC4)CC3)s2)c1 [4D-8] |
| < 100 | CC(C)(O)c1ncc(-c2cc(Br)cc(Nc3nccc(C(F)(F)F)n3)c2)s1 [Example 4A-4, 2-[5-(3-bromo-5-{[4-(trifluoromethyl)pyrimidin-2-yl]amino}phenyl)-1,3-thiazol-2-yl]propan-2-ol] |
| < 100 | Cc1cc(Nc2nccc(C(F)(F)F)n2)cc(-c2cnc(C3(O)CCC(C4(N)CC4)CC3)s2)c1 (centres unmarked) [Example 4C-20] |
| < 100 | CC(O)(CO)c1ncc(-c2cccc(Nc3nccc(C(F)(F)F)n3)c2)s1 (single isomer, unassigned) [Ex 5-3] |
| < 100 | OC1(c2ncc(-c3cccc(Nc4nccc(C(F)(F)F)n4)c3)s2)CCN(C2CC2)CC1 [4D-3] |
| < 100 | CC(C)(CO)c1ncc(-c2cccc(Nc3nccc(C(F)(F)F)n3)c2)s1 [Example 21, 2-methyl-2-[5-(3-{[4-(trifluoromethyl)pyrimidin-2-yl]amino}phenyl)-1,3-thiazol-2-yl]propan-1-ol] |
| < 100 | OC(c1ncc(-c2cc(Nc3nccc(C(F)(F)F)n3)cc(N3CCOCC3)c2)s1)(C1CC1)C1CC1 [Example 24, dicyclopropyl{5-[3-(morpholin-4-yl)-5-{[4-(trifluoromethyl)pyrimidin-2-yl]amino}phenyl]-1,3-thiazol-2-yl}methanol] |
| < 100 | Cc1cc(Nc2nccc(C(F)(F)F)n2)cc(-c2cnc(C3(O)CN(C(C)(C)C(=O)OC(C)(C)C(=O)O)C3)s2)c1 [Example 53(2), 2-[(2-{3-Hydroxy-3-[5-(3-methyl-5-{[4-(trifluoromethyl)pyrimidin-2-yl]amino}phenyl)-1,3-thiazol-2-yl]azetidin-1-yl}-2-methylpropanoyl)oxy]-2-methylpropanoic acid] |
| < 100 | Cc1cc(Nc2nccc(C(F)(F)F)n2)cc(-c2cnc(C3(O)CC4(O)CCC3(C)CC4)s2)c1 (centres unmarked) [Example 4B-41] |
| < 100 | OC1(c2ncc(-c3cccc(Nc4nccc(C(F)(F)F)n4)c3)s2)COC1 [Example 4B-11] |
| < 100 | Cc1cc(Nc2nccc(C(F)(F)F)n2)cc(-c2cnc([C@]3(O)CC[C@@H](c4n[nH]c(=O)o4)CC3)s2)c1 [Example 55, 5-{cis-4-hydroxy-4-[5-(3-methyl-5-{[4-(trifluoromethyl)pyrimidin-2-yl]amino}phenyl)-1,3-thiazol-2-yl]cyclohexyl}-1,3,4-oxadiazol-2(3H)-one] |
| < 100 | Cc1cc(Nc2nccc(C(F)(F)F)n2)cc(-c2cnc(C3(O)CCC4(C)C(=O)CCC4(O)C3)s2)c1 (centres unmarked) [Example 4B-26] |
| < 100 | CC(O)(CO)c1ncc(-c2cccc(Nc3nccc(C(F)(F)F)n3)c2)s1 (centres unmarked) [Ex 5-1] |
| < 100 | OC1(c2ncc(-c3cccc(Nc4nccc(C(F)(F)F)n4)c3)s2)CCCCCC1 [Example 4C-1] |
| < 100 | Cc1cc(Nc2nccc(C)n2)cc(-c2cnc(C3(C)OC(=O)CC3(C)C)s2)c1 (centres unmarked) [Example 4B-58] |
| < 100 | Cc1cc(Nc2nccc(C(F)(F)F)n2)cc(-c2cnc(C3(O)C4CC5CC(C4)C(C(=O)O)C3C5)s2)c1 (centres unmarked) [Example 4B-43] |
| < 100 | Cc1cc(Nc2nccc(C)n2)cc(-c2cnc(C3(O)CCC(CO)CC3)s2)c1 (centres unmarked) [Example 4C-9] |
| < 100 | Cc1cc(Nc2nccc(C(F)(F)F)n2)cc(-c2cnc(C3(O)C4CC5C(C4C(=O)O)C53)s2)c1 (centres unmarked) [Example 4B-36] |
| < 100 | CC(=O)NC12CC3CC(C1)C(O)(c1ncc(-c4cc(C)cc(Nc5nccc(C(F)(F)F)n5)c4)s1)C(C3)C2 (centres unmarked) [Example 4B-51] |
| < 100 | Cc1cc(Nc2nccc(C(F)(F)F)n2)cc(-c2cnc(C3(O)CCCC(C)(CC(=O)O)C3)s2)c1 (centres unmarked) [Example 4C-22] |
| < 100 | Cc1cc(Nc2nccc(C(F)(F)F)n2)cc(-c2cnc(C3(O)CCN(S(=O)(=O)NC(=O)OC(C)(C)C)CC3)s2)c1 [Example 48, tert-butyl({4-hydroxy-4-[5-(3-methyl-5-{[4-(trifluoromethyl)pyrimidin-2-yl]amino}phenyl)-1,3-thiazol-2-yl]piperidin-1-yl}sulfonyl)carbamate] |
| < 100 | COC1(c2ncc(-c3cc(C)cc(Nc4nccc(C(F)(F)F)n4)c3)s2)CCC(C(=O)O)CC1 (stereo not drawn) [Example 40(1), 2-({3-[2-(cis-4-Carboxy-1-methoxycyclohexyl)-1,3-thiazol-5-yl]-5-methylphenyl}amino)-4-(trifluoromethyl)pyrimidin-1-ium trifluoroacetate] |
| < 100 | Cc1cc(Nc2nccc(C)n2)cc(-c2cnc([C@]3(O)[C@H]4CC5C[C@H]3C[C@](C(=O)O)(C5)C4)s2)c1 [Example 4B-30] |
